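Exposure lasted 48 hours, with cells grown in 96-well plates and compounds tested at five concentrations. The concentration for full growth arrest is given as TGI.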
Tests used:
Experiment in all cases: NCI anticancer screen, dose series, 48 h
786-0 renal = system: 786-0 renal
A498 renal = system: A498 renal
A549 NSCLC = system: A549 NSCLC
ACHN renal = system: ACHN renal
BT-549 breast = system: BT-549 breast
CAKI-1 renal = system: CAKI-1 renal
CCRF-CEM leukemia = system: CCRF-CEM leukemia
COLO 205 colon = system: COLO 205 colon
DU-145 prostate = system: DU-145 prostate
EKVX NSCLC = system: EKVX NSCLC
HCC-2998 colon = system: HCC-2998 colon
HCT-116 colon = system: HCT-116 colon
HCT-15 colon = system: HCT-15 colon
HL-60(TB) leukemia = system: HL-60(TB) leukemia
HOP-62 NSCLC = system: HOP-62 NSCLC
HOP-92 NSCLC = system: HOP-92 NSCLC
HS 578T breast = system: HS 578T breast
HT29 colon = system: HT29 colon
IGROV1 ovarian = system: IGROV1 ovarian
K-562 leukemia = system: K-562 leukemia
KM12 colon = system: KM12 colon
LOX IMVI melanoma = system: LOX IMVI melanoma
M14 melanoma = system: M14 melanoma
MALME-3M melanoma = system: MALME-3M melanoma
MCF7 breast = system: MCF7 breast
MDA-MB-231 breast = system: MDA-MB-231 breast
MDA-MB-435 = system: MDA-MB-435
MDA-N = system: MDA-N
MOLT-4 leukemia = system: MOLT-4 leukemia
NCI-H226 lung = system: NCI-H226 lung
NCI-H23 lung = system: NCI-H23 lung
NCI-H460 lung = system: NCI-H460 lung
NCI-H522 lung = system: NCI-H522 lung
NCI/ADR-RES ovarian = system: NCI/ADR-RES ovarian
OVCAR-3 ovarian = system: OVCAR-3 ovarian
OVCAR-4 ovarian = system: OVCAR-4 ovarian
OVCAR-5 ovarian = system: OVCAR-5 ovarian
OVCAR-8 ovarian = system: OVCAR-8 ovarian
PC-3 prostate = system: PC-3 prostate
RPMI-8226 leukemia = system: RPMI-8226 leukemia
RXF 393 renal = system: RXF 393 renal
SF-268 CNS = system: SF-268 CNS
SF-295 CNS = system: SF-295 CNS
SF-539 CNS = system: SF-539 CNS
SK-MEL-2 melanoma = system: SK-MEL-2 melanoma
SK-MEL-28 melanoma = system: SK-MEL-28 melanoma
SK-MEL-5 melanoma = system: SK-MEL-5 melanoma
SK-OV-3 ovarian = system: SK-OV-3 ovarian
SN12C renal = system: SN12C renal
SNB-19 CNS = system: SNB-19 CNS
SNB-75 CNS = system: SNB-75 CNS
SR leukemia = system: SR leukemia
SW-620 colon = system: SW-620 colon
T-47D breast = system: T-47D breast
TK-10 renal = system: TK-10 renal
U251 CNS = system: U251 CNS
UACC-257 melanoma = system: UACC-257 melanoma
UACC-62 melanoma = system: UACC-62 melanoma
UO-31 renal = system: UO-31 renal
DLD-1 colon = system: DLD-1 colon
DMS 273 small cell lung = system: DMS 273 small cell lung
HOP-18 NSCLC = system: HOP-18 NSCLC
KM20L2 colon = system: KM20L2 colon
LXFL 529 NSCLC = system: LXFL 529 NSCLC
M19-MEL melanoma = system: M19-MEL melanoma
SNB-78 CNS = system: SNB-78 CNS
XF 498 CNS = system: XF 498 CNS

## CCN(CC)C1Oc2cc3c(cc2C(c2cc(OC)c(O)c(OC)c2)C1C)OCO3 (stereo not given)
786-0 renal
  TGI: 29.1 µM
A498 renal
  TGI: 64.8 µM
A549 NSCLC
  TGI: 60 µM
ACHN renal
  TGI: > 100 µM
BT-549 breast
  TGI: > 100 µM
CAKI-1 renal
  TGI: > 72.9 µM
CCRF-CEM leukemia
  TGI: 42.1 µM
COLO 205 colon
  TGI: 31.8 µM
DU-145 prostate
  TGI: > 89.3 µM
EKVX NSCLC
  TGI: > 75.6 µM
HCC-2998 colon
  TGI: 21.4 µM
HCT-116 colon
  TGI: 18.2 µM
HCT-15 colon
  TGI: > 38.6 µM
HL-60(TB) leukemia
  TGI: 11.9 µM
HOP-62 NSCLC
  TGI: 39.6 µM
HOP-92 NSCLC
  TGI: 77.9 µM
HS 578T breast
  TGI: 50.9 µM
HT29 colon
  TGI: 22.2 µM
IGROV1 ovarian
  TGI: 50 µM
K-562 leukemia
  TGI: 17.4 µM
KM12 colon
  TGI: 22.5 µM
LOX IMVI melanoma
  TGI: 29 µM
M14 melanoma
  TGI: 20.4 µM
MALME-3M melanoma
  TGI: 30 µM
MCF7 breast
  TGI: 27.3 µM
MDA-MB-231 breast
  TGI: 73.7 µM
MDA-MB-435
  TGI: 6.05 µM
MDA-N
  TGI: 4.8 µM
MOLT-4 leukemia
  TGI: 27.2 µM
NCI-H226 lung
  TGI: 52.3 µM
NCI-H23 lung
  TGI: > 100 µM
NCI-H460 lung
  TGI: 20.6 µM
NCI-H522 lung
  TGI: 11 µM
NCI/ADR-RES ovarian
  TGI: 37.4 µM
OVCAR-3 ovarian
  TGI: 25.9 µM
OVCAR-4 ovarian
  TGI: > 82.2 µM
OVCAR-5 ovarian
  TGI: 21.7 µM
OVCAR-8 ovarian
  TGI: 38.8 µM
PC-3 prostate
  TGI: > 75.1 µM
RPMI-8226 leukemia
  TGI: 34.7 µM
RXF 393 renal
  TGI: > 31.5 µM
SF-268 CNS
  TGI: > 100 µM
SF-295 CNS
  TGI: 24.1 µM
SF-539 CNS
  TGI: 34.7 µM
SK-MEL-2 melanoma
  TGI: > 95.7 µM
SK-MEL-28 melanoma
  TGI: 44.2 µM
SK-MEL-5 melanoma
  TGI: 30.7 µM
SK-OV-3 ovarian
  TGI: 66.3 µM
SN12C renal
  TGI: 36.7 µM
SNB-19 CNS
  TGI: 44.2 µM
SNB-75 CNS
  TGI: 23.9 µM
SR leukemia
  TGI: 32.7 µM
SW-620 colon
  TGI: 20.9 µM
T-47D breast
  TGI: > 73.4 µM
TK-10 renal
  TGI: 72.5 µM
U251 CNS
  TGI: 26.6 µM
UACC-257 melanoma
  TGI: > 100 µM
UACC-62 melanoma
  TGI: 26.2 µM
UO-31 renal
  TGI: > 100 µM

## CCOC(=O)C1=C(OC(OCC)C([Se]c2ccccc2)C(C)C)CCC1 (stereo not given)
786-0 renal
  TGI: 20.6 µM
A498 renal
  TGI: > 100 µM
A549 NSCLC
  TGI: > 100 µM
ACHN renal
  TGI: 62 µM
CAKI-1 renal
  TGI: > 100 µM
CCRF-CEM leukemia
  TGI: 27.8 µM
COLO 205 colon
  TGI: 31.7 µM
DLD-1 colon
  TGI: 33.8 µM
DMS 273 small cell lung
  TGI: 20 µM
EKVX NSCLC
  TGI: 46.7 µM
HCC-2998 colon
  TGI: > 100 µM
HCT-116 colon
  TGI: 26 µM
HCT-15 colon
  TGI: 29.4 µM
HL-60(TB) leukemia
  TGI: 11.2 µM
HOP-18 NSCLC
  TGI: 41.3 µM
HOP-62 NSCLC
  TGI: > 100 µM
HOP-92 NSCLC
  TGI: 51.1 µM
HT29 colon
  TGI: 41.7 µM
IGROV1 ovarian
  TGI: 52.4 µM
K-562 leukemia
  TGI: > 100 µM
KM12 colon
  TGI: > 100 µM
KM20L2 colon
  TGI: 63.3 µM
LOX IMVI melanoma
  TGI: 6.93 µM
LXFL 529 NSCLC
  TGI: 29.5 µM
M14 melanoma
  TGI: 43.6 µM
M19-MEL melanoma
  TGI: 34.9 µM
MALME-3M melanoma
  TGI: 81.9 µM
MOLT-4 leukemia
  TGI: 45.4 µM
NCI-H226 lung
  TGI: 37.4 µM
NCI-H23 lung
  TGI: 22.3 µM
NCI-H460 lung
  TGI: 31.4 µM
NCI-H522 lung
  TGI: 20.2 µM
OVCAR-3 ovarian
  TGI: 40 µM
OVCAR-4 ovarian
  TGI: 32.9 µM
OVCAR-5 ovarian
  TGI: 59.4 µM
OVCAR-8 ovarian
  TGI: 27.4 µM
RPMI-8226 leukemia
  TGI: 38.5 µM
RXF 393 renal
  TGI: 21.9 µM
SF-268 CNS
  TGI: 20 µM
SF-295 CNS
  TGI: 44.5 µM
SF-539 CNS
  TGI: 30.8 µM
SK-MEL-2 melanoma
  TGI: 62 µM
SK-MEL-28 melanoma
  TGI: 39.4 µM
SK-MEL-5 melanoma
  TGI: 28.8 µM
SK-OV-3 ovarian
  TGI: > 100 µM
SN12C renal
  TGI: 25.1 µM
SNB-19 CNS
  TGI: > 100 µM
SNB-75 CNS
  TGI: 62.5 µM
SNB-78 CNS
  TGI: 38.8 µM
SR leukemia
  TGI: 15.4 µM
TK-10 renal
  TGI: > 100 µM
U251 CNS
  TGI: 16.6 µM
UACC-257 melanoma
  TGI: 75.4 µM
UACC-62 melanoma
  TGI: 33.6 µM
UO-31 renal
  TGI: 61 µM
XF 498 CNS
  TGI: 26.4 µM
